Experimental data from ChEMBL document CHEMBL3045692, “Effectiveness of cyproconazole to control Armillaria root rot of apple, walnut and kiwifruit” (Crop Prot, 2012).
In brackets after ≈: the same amount, converted by molar mass.

Assays:
[1] = test system: Armillaria mellea; assay: Fungicidal activity against Armillaria mellea infected walnut assessed as mycelial growth inhibition at 5 mg/l formulated as Caddy 10WP at 25 degC measured every week for 1 month (reference value: 0%); format: functional; conditions: read-out: GI
[2] = test system: Armillaria mellea; assay: Fungicidal activity against Armillaria mellea infected walnut assessed as mycelial growth inhibition at 30 mg/l formulated as Caddy 10WP at 25 degC measured every week for 1 month (reference value: 0%); format: functional; conditions: read-out: GI
[3] = test system: Armillaria mellea; assay: Fungicidal activity against Armillaria mellea infected walnut assessed as mycelial growth inhibition at 15 mg/l formulated as Caddy 10WP at 25 degC measured every week for 1 month (reference value: 0%); format: functional; conditions: read-out: GI
[4] = test system: Armillaria mellea; assay: Fungicidal activity against Armillaria mellea infected apple assessed as mycelial growth inhibition at 5 mg/l formulated as Caddy 10WP at 25 degC measured every week for 1 month (reference value: 0%); format: functional; conditions: read-out: GI
[5] = test system: Armillaria mellea; assay: Fungicidal activity against Armillaria mellea infected apple assessed as mycelial growth inhibition at 30 mg/l formulated as Caddy 10WP at 25 degC measured every week for 1 month (reference value: 0%); format: functional; conditions: read-out: GI
[6] = test system: Armillaria mellea; assay: Fungicidal activity against Armillaria mellea infected walnut assessed as mycelial growth inhibition at 20 mg/l formulated as Caddy 10WP at 25 degC measured every week for 1 month (reference value: 0%); format: functional; conditions: read-out: GI
[7] = test system: Armillaria mellea; assay: Fungicidal activity against Armillaria mellea infected kiwifruit assessed as mycelial growth inhibition at 15 mg/l formulated as Caddy 10WP at 25 degC measured every week for 1 month (reference value: 0%); format: functional; conditions: read-out: GI
[8] = test system: Armillaria mellea; assay: Fungicidal activity against Armillaria mellea infected apple assessed as mycelial growth inhibition at 10 mg/l formulated as Caddy 10WP at 25 degC measured every week for 1 month (reference value: 0%); format: functional; conditions: read-out: GI
[9] = test system: Armillaria mellea; assay: Fungicidal activity against Armillaria mellea infected kiwifruit assessed as mycelial growth inhibition at 25 mg/l formulated as Caddy 10WP at 25 degC measured every week for 1 month (reference value: 0%); format: functional; conditions: read-out: GI
[10] = test system: Armillaria mellea; assay: Fungicidal activity against Armillaria mellea infected apple assessed as mycelial growth inhibition at 25 mg/l formulated as Caddy 10WP at 25 degC measured every week for 1 month (reference value: 0%); format: functional; conditions: read-out: GI
[11] = test system: Armillaria mellea; assay: Fungicidal activity against Armillaria mellea infected kiwifruit assessed as mycelial growth inhibition at 10 mg/l formulated as Caddy 10WP at 25 degC measured every week for 1 month (reference value: 0%); format: functional; conditions: read-out: GI
[12] = test system: Armillaria mellea; assay: Fungicidal activity against Armillaria mellea infected kiwifruit assessed as mycelial growth inhibition at 30 mg/l formulated as Caddy 10WP at 25 degC measured every week for 1 month (reference value: 0%); format: functional; conditions: read-out: GI
[13] = test system: Armillaria mellea; assay: Fungicidal activity against Armillaria mellea infected kiwifruit assessed as mycelial growth inhibition at 5 mg/l formulated as Caddy 10WP at 25 degC measured every week for 1 month (reference value: 0%); format: functional; conditions: read-out: GI
[14] = test system: Armillaria mellea; assay: Fungicidal activity against Armillaria mellea infected kiwifruit assessed as mycelial growth inhibition at 20 mg/l formulated as Caddy 10WP at 25 degC measured every week for 1 month (reference value: 0%); format: functional; conditions: read-out: GI
[15] = test system: Armillaria mellea; assay: Fungicidal activity against Armillaria mellea infected apple assessed as mycelial growth inhibition at Caddy 10WP formulation at 25 degC measured every week for 1 month; format: functional, organism-based
[16] = test system: Armillaria mellea; assay: Fungicidal activity against Armillaria mellea infected walnut assessed as mycelial growth inhibition at Caddy 10WP formulation at 25 degC measured every week for 1 month; format: functional, organism-based
[17] = test system: Armillaria mellea; assay: Fungicidal activity against Armillaria mellea infected walnut assessed as mycelial growth inhibition at 10 mg/l formulated as Caddy 10WP at 25 degC measured every week for 1 month (reference value: 0%); format: functional; conditions: read-out: GI
[18] = test system: Armillaria mellea; assay: Fungicidal activity against Armillaria mellea infected kiwifruit assessed as mycelial growth inhibition at Caddy 10WP formulation at 25 degC measured every week for 1 month; format: functional, organism-based
[19] = test system: Armillaria mellea; assay: Fungicidal activity against Armillaria mellea infected walnut assessed as mycelial growth inhibition at 25 mg/l formulated as Caddy 10WP at 25 degC measured every week for 1 month (reference value: 0%); format: functional; conditions: read-out: GI
[20] = test system: Armillaria mellea; assay: Fungicidal activity against Armillaria mellea infected apple assessed as mycelial growth inhibition at 20 mg/l formulated as Caddy 10WP at 25 degC measured every week for 1 month (reference value: 0%); format: functional; conditions: read-out: GI
[21] = test system: Armillaria mellea; assay: Fungicidal activity against Armillaria mellea infected apple assessed as mycelial growth inhibition at 15 mg/l formulated as Caddy 10WP at 25 degC measured every week for 1 month (reference value: 0%); format: functional; conditions: read-out: GI

CC(C1CC1)C(O)(Cn1cncn1)c1ccc(Cl)cc1 (stereo unspecified) [CYPROCONAZOLE]
inhibition of growth at 5 µg/mL [1]: 41%
inhibition of growth at 30 µg/mL [2]: 100%
inhibition of growth at 15 µg/mL [3]: 95%
inhibition of growth at 5 µg/mL [4]: 56%
inhibition of growth at 30 µg/mL [5]: 100%
inhibition of growth at 20 µg/mL [6]: 100%
inhibition of growth at 15 µg/mL [7]: 100%
inhibition of growth at 10 µg/mL [8]: 89%
inhibition of growth at 25 µg/mL [9]: 100%
inhibition of growth at 25 µg/mL [10]: 100%
inhibition of growth at 10 µg/mL [11]: 86%
inhibition of growth at 30 µg/mL [12]: 100%
inhibition of growth at 5 µg/mL [13]: 47%
inhibition of growth at 20 µg/mL [14]: 100%
EC50 [15]: 5.19 µg/mL (≈ 17.8 µM)
EC50 [16]: 6.73 µg/mL (≈ 23.1 µM)
inhibition of growth at 10 µg/mL [17]: 73%
EC50 [18]: 5.72 µg/mL (≈ 19.6 µM)
inhibition of growth at 25 µg/mL [19]: 100%
inhibition of growth at 20 µg/mL [20]: 100%
inhibition of growth at 15 µg/mL [21]: 98%
